Measurements: patent US20110039847A1, “AMIDE DERIVATIVES AS SIRTUIN MODULATORS” (Sirtris Pharmaceuticals, Inc, priority 2007, published 2011)
Counter-ions that a name gives are not always drawn.

Target: T1, SIRT1 (Homo sapiens, UniProt Q96EB6)
T1 sequence (Q96EB6 1-747): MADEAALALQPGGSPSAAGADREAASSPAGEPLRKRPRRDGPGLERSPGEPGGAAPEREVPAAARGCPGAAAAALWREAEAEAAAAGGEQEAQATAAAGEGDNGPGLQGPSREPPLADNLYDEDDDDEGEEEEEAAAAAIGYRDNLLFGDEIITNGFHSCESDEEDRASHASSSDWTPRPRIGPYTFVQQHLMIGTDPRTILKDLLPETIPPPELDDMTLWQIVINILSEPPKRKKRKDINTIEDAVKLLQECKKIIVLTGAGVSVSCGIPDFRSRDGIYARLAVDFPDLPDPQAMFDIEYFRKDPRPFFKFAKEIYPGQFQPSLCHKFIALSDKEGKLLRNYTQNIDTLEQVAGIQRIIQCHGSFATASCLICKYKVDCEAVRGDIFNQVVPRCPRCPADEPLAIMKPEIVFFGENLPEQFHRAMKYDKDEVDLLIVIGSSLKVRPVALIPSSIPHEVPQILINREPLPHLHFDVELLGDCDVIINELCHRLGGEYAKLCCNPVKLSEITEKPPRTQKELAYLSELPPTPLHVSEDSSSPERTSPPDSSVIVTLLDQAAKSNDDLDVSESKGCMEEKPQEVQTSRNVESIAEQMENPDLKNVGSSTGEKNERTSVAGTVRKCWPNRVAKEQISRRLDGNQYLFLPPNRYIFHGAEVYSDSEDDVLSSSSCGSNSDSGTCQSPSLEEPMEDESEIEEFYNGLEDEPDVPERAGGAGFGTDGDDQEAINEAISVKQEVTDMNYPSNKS
Assay: Mass spectrometry based SIRT1 deacetylation (activation) assay
Format: biochemical
Conditions: 0.5 μM peptide substrate, 120 μM βNAD+, 10 nM SIRT1, 25 min at 25° C.; for Emax: 25 min, read-out: % Fold Act. (percent maximum fold activation)
Excerpt: A mass spectrometry based assay was used to identify modulators of SIRT1 activity. The mass spectrometry based assay utilizes a peptide having 20 amino acid residues as follows: Ac-EE-K(biotin)-GQSTSSHSK(Ac)NleSTEG-K(5TMR)-EE-NH2 (SEQ ID NO: 1) wherein K(Ac) is an acetylated lysine residue and Nle is a norleucine. The peptide is labeled with the fluorophore 5TMR (excitation 540 nm/emission 580 nm) at the C-terminus. The sequence of the peptide substrate is based on p53 with several modifications. In addition, the methionine residue naturally present in the sequence was replaced with the norleucine because the methionine may be susceptible to oxidation during synthesis and purification.
The mass spectrometry assay is conducted as follows: 0.5 μM peptide substrate and 120 μM βNAD^+ is incubated with 10 nM SIRT1 for 25 minutes at 25° C. in a reaction buffer (50 mM Tris-acetate pH 8, 137 mM NaCl, 2.7 mM KCl, 1 mM MgCl2, 5 mM DTT, 0.05% BSA). Test compounds may be added to the reaction as described above. […] After the 25 minute incubation with SIRT1, 10 μL of 10% formic acid is added to stop the reaction. Reactions are sealed and frozen for later mass spec analysis. Determination of the mass of the substrate peptide allows for precise determination of the degree of acetylation (i.e. starting material) as compared to deacetylated peptide (product).
A control for inhibition of sirtuin activity is conducted by adding 1 μL of 500 mM nicotinamide as a negative control at the start of the reaction (e.g., permits determination of maximum sirtuin inhibition). A control for activation of sirtuin activity is conducted using 10 nM of sirtuin protein, with 1 μL of DMSO in place of compound, to determine the amount of deacetylation of the substrate at a given timepoint within the linear range of the assay. This timepoint is the same as that used for test compounds and, within the linear range, the endpoint represents a change in velocity.
For the above assay, SIRT1 protein was expressed and purified as follows. […] The protein was expressed by induction with 1 mM IPTG as an N-terminal His-tag fusion protein at 18° C. overnight and harvested at 30,000×g. Cells were lysed with lysozyme in lysis buffer (50 mM Tris-HCl, 2 mM Tris[2-carboxyethyl]phosphine (TCEP), 10 μM ZnCl2, 200 mM NaCl) and further treated with sonication for 10 min for complete lysis. The protein was purified over a Ni-NTA column (Amersham) and fractions containing pure protein were pooled, concentrated and run over a sizing column (Sephadex S200 26/60 global). The peak containing soluble protein was collected and run on an Ion-exchange column (MonoQ). Gradient elution (200 mM-500 mM NaCl) yielded pure protein. This protein was concentrated and dialyzed against dialysis buffer (20 mM Tris-HCl, 2 mM TCEP) overnight. The protein was aliquoted and frozen at −80° C. until further use.

Compound | EC1.5 | Emax [%]
CCN(CCN(C)C)c1cc(C(=O)Nc2ccccc2-c2nnc(C(C)C)s2)nc(-c2ccccc2)n1 [Compound 83] | A (EC1.5≦1 uM) | ≥ 300
CCN(CCOC)c1cc(C(=O)Nc2ccccc2-c2ncc(C(C)(C)C)s2)nc(-c2ccccc2)c1 [Compound 84] | A (EC1.5≦1 uM) | 150 to 300
CCN(CCOC)c1cc(C(=O)Nc2ccccc2-c2ncc(C(C)(C)C)o2)nc(-c2ccccc2)c1 [Compound 85] | A (EC1.5≦1 uM) | ≥ 300
CCN(CCN(C)C)c1cc(C(=O)Nc2ccccc2-c2nnc(C(=O)NC)s2)nc(-c2ccccc2)n1 [Compound 86] | A (EC1.5≦1 uM) | 150 to 300
CCN(CCN(C)C)c1cc(C(=O)Nc2ccccc2-c2nnc(C(=O)N3CCOCC3)s2)nc(-c2ccccc2)n1 [Compound 87] | A (EC1.5≦1 uM) | ≥ 300
CN1CCN(c2cc(C(=O)Nc3ccccc3-c3nnc(C(=O)N4CCOCC4)s3)nc(-c3ccccc3)n2)CC1=O [Compound 88] | A (EC1.5≦1 uM) | ≥ 300
O=C1CN(c2cc(C(=O)Nc3ccccc3-c3nnc(C(=O)N4CCOCC4)s3)nc(-c3ccccc3)n2)CCN1 [Compound 89] | A (EC1.5≦1 uM) | ≥ 300
O=C(Nc1ccccc1-c1nnc(C(=O)N2CCOCC2)s1)c1cc(NC(CO)CO)nc(-c2ccccc2)n1 [Compound 90] | A (EC1.5≦1 uM) | ≥ 300
O=C(Nc1ccccc1-c1nnc(C(=O)N2CCOCC2)s1)c1cc(OC[C@@H](O)CO)nc(-c2ccccc2)n1 [Compound 91] | A (EC1.5≦1 uM) | 150 to 300
COCCN(CCOC)c1cc(C(=O)Nc2ccccc2-c2nnc(C(=O)N3CCOCC3)s2)nc(-c2ccccc2)n1 [Compound 92] | A (EC1.5≦1 uM) | ≥ 300
CCN(CCN(C)C)c1cc(C(=O)Nc2ccccc2-c2nnc(C3CCOCC3)s2)nc(-c2ccccc2)n1 [Compound 93, 6-((2-(dimethylamino)ethyl)(ethyl)amino)-2-phenyl-N-(2-(5-(tetrahydro-2H-pyran-4-yl)-1,3,4-thiadiazol-2-yl)phenyl)pyrimidine-4-carboxamide hydrochloride] | A (EC1.5≦1 uM) | ≥ 300
CCN1CCN(c2cc(C(=O)Nc3ccccc3-c3nnc(C4CCOCC4)s3)nc(-c3ccccc3)n2)CC1=O [Compound 94, 6-(4-ethyl-3-oxopiperazin-1-yl)-2-phenyl-N-(2-(5-(tetrahydro-2H-pyran-4-yl)-1,3,4-thiadiazol-2-yl)phenyl)pyrimidine-4-carboxamide] | A (EC1.5≦1 uM) | 150 to 300
O=C1CN(c2cc(C(=O)Nc3ccccc3-c3nncs3)nc(-c3ccccc3)n2)CCN1 [Compound 95] | A (EC1.5≦1 uM) | ≥ 300
CCN1CCN(c2cc(C(=O)Nc3ccccc3-c3nncs3)nc(-c3ccccc3)n2)CC1=O [Compound 96] | A (EC1.5≦1 uM) | 150 to 300
CCN(CCN(C)C)c1cc(C(=O)Nc2ccccc2-c2nnc(C3CCOC3)s2)nc(-c2ccccc2)n1 (centres unmarked) [Compound 97, 6-((2-(dimethylamino)ethyl)(ethyl)amino)-2-phenyl-N-(2-(5-(tetrahydrofuran-3-yl)-1,3,4-thiadiazol-2-yl)phenyl)pyrimidine-4-carboxamide] | A (EC1.5≦1 uM) | ≥ 300
CCN(CCN(C)C)c1cc(C(=O)Nc2ccccc2-c2nnc(NS(C)(=O)=O)s2)nc(-c2ccccc2)n1 [Compound 98] | A (EC1.5≦1 uM) | ≥ 300
O=C(Nc1ccccc1-c1nncs1)c1cc(NC(CO)CO)nc(-c2ccccc2)n1 [Compound 99] | A (EC1.5≦1 uM) | ≥ 300

Compound | EC1.5 | Emax [%]
O=C(Nc1ccccc1-c1nnc(N2CCOCC2)s1)c1cc(N2CCOCC2)nc(-c2ccccc2)n1 [Compound 100] | A (EC1.5≦1 uM) | 150 to 300
CN(C)CCNc1cc(C(=O)Nc2ccccc2-c2nnc(N3CCOCC3)s2)nc(-c2ccccc2)n1 [Compound 101] | A (EC1.5≦1 uM) | ≥ 300
O=C(Nc1ccccc1-c1nnc(N2CCOCC2)s1)c1cc(NC(CO)CO)nc(-c2ccccc2)n1 [Compound 102] | A (EC1.5≦1 uM) | ≥ 300
O=C1CN(c2cc(C(=O)Nc3ccccc3-c3nnc(N4CCOCC4)s3)nc(-c3ccccc3)n2)CCN1 [Compound 103] | A (EC1.5≦1 uM) | ≥ 300
CCN1CCN(c2cc(C(=O)Nc3ccccc3-c3nnc(N4CCOCC4)s3)nc(-c3ccccc3)n2)CC1=O [Compound 104] | A (EC1.5≦1 uM) | 150 to 300
CCN(CCN(C)C)c1cc(C(=O)Nc2ccccc2-c2nnc(N3CCOCC3)s2)nc(-c2ccccc2)n1 [Compound 105] | A (EC1.5≦1 uM) | ≥ 300
COCCN(CCOC)c1cc(C(=O)Nc2ccccc2-c2nnc(N3CCOCC3)s2)nc(-c2ccccc2)n1 [Compound 106] | A (EC1.5≦1 uM) | 150 to 300
CCN(CCOC)c1cc(C(=O)Nc2ccccc2-c2nnc(N3CCOCC3)s2)nc(-c2ccccc2)n1 [Compound 107] | A (EC1.5≦1 uM) | 150 to 300
O=C(Nc1ccccc1-c1nnc(N2CCOCC2)s1)c1cc(OC[C@@H](O)CO)nc(-c2ccccc2)n1 [Compound 108] | A (EC1.5≦1 uM) | ≥ 300
O=C(Nc1ccccc1-c1nnc(N2CCOCC2)s1)c1cc(OC[C@H](O)CO)nc(-c2ccccc2)n1 [Compound 109] | A (EC1.5≦1 uM) | ≥ 300
O=C(Nc1ccccc1-c1nncs1)c1cc(OC[C@@H](O)CO)nc(-c2ccccc2)n1 [Compound 110] | A (EC1.5≦1 uM) | ≥ 300
O=C(Nc1ccccc1-c1nncs1)c1cc(OCC(O)CO)nc(-c2ccccc2)n1 (centres unmarked) [Compound 111] | A (EC1.5≦1 uM) | ≥ 300
CN1CCN(c2cc(C(=O)Nc3ccccc3-c3nncs3)nc(-c3ccccc3)n2)CC1=O [Compound 112] | A (EC1.5≦1 uM) | ≥ 300
CCN(CCN(C)C)c1cc(C(=O)Nc2ccccc2-c2nnc(NC(=O)N3CCOCC3)s2)nc(-c2ccccc2)n1 [Compound 113] | A (EC1.5≦1 uM) | ≥ 300
CCN(CCN(C)C)c1cc(C(=O)Nc2ccccc2-c2nnc(C(F)=C3CCOCC3)s2)nc(-c2ccccc2)n1 [Compound 114, 6-((2-(dimethylamino)ethyl)(ethyl)amino)-N-(2-(5-(fluoro(2H-pyran-4(3H,5H,6H)-ylidene)methyl)-1,3,4-thiadiazol-2-yl)phenyl)-2-phenylpyrimidine-4-carboxamide] | A (EC1.5≦1 uM) | ≥ 300
CCN(CCN(C)C)c1cc(C(=O)Nc2ccccc2-c2nnc(SC)s2)nc(-c2ccccc2)n1 [Compound 115] | A (EC1.5≦1 uM) | ≥ 300
CCN(CCN(C)C)c1cc(C(=O)Nc2ccccc2-c2nnc([S+](C)[O-])s2)nc(-c2ccccc2)n1 (centres unmarked) [Compound 116] | A (EC1.5≦1 uM) | ≥ 300
